The values that follow come from patent US8835392B2, “Mimetic peptides and the use thereof in the form of 20S, 26S and immunoproteasome inhibitors” (Technische Universität, priority 2005, dated 2014).

The target in data set [1] is T1, 20S proteasome β1 caspase-like activity (LLE-MCA) (Homo sapiens, UniProt P28072+Q99436).
T1 construct: Proteasomes were isolated from red blood cells; from tissue; host or cells: red blood cells
Kind of data set: Protease assay, caspase-like activity of isolated 20S proteasomes. The data set is classed as biochemical. The settings on record: isolated 20S proteasome; LLE-MCA 50 μM; 15 min pre-incubation; read-out: IC50 β1 Caspase-like (E). The procedure: Proteasomes were isolated from red blood cells. Cells were lysed with DTT (1 mM), and the stroma-free supernatant was loaded on DEAE-sepharose (Toyopearls). Proteasome was eluted with an NaCl-gradient in TEAD (20 mM TrisCl pH 7.4, 1 mM EDTA, 1 mM azide, 1 mM DTT) of 100 to 300 mM NaCl. Proteasome was concentrated using ammonium sulfate-precipitation (between 40 and 70% saturation) and was separated in a 10-40% sucrose-gradient through centrifugation at 40.000 rpm for 16 hours (SW40; L7, Beckman & Coulter). Finally, the proteasomes were purified on a MonoQ-column and eluted with an NaCl-gradient at about 280 mM NaCl. The fractions containing purified proteasome were dialysed against 50 mM NaCl in TEAD and stored on ice. The purity was determined using SDS-PAGE.
(§1) Suc-LLVY-AMC, Z-VGR-AMC and LLE-AMC (BACHEM, Calbiochem) was used, in order to determine the chymotrypsin-like, trypsin-like or caspase-like (post-acidic)-activities of the proteasome. Substrate was incubated with proteasome at 37° C. in assay-buffer (20 mM Tris/Cl, pH 7.2, 1 mM EDTA, 1 mM DTT) for one hour. 100 ng proteasome was pre-incubated with 0.01-10 μM of the inhibitor for […]. The reaction was started by the addition of substrate (50 μM). The AMC as released was detected using fluorescence emission at 460 nm (excitation at 390 nm) using a TECAN-fluorimeter. The activity was calculated in fluorescence-units. The inhibition is depicted by IC50-values.
(§2) The effects thereof were compared with the one of the commonly used proteasomal inhibitor 3 (MG132). The chymotrypsin-like (Suc-LLVY-AMC), the trypsin-like (Bz-VGR-AMC), and the caspase-like (Z-LLE-AMC)-activities of 20S proteasomes were determined following incubation for one hour at 37° C.
The IC50-values form the inhibition of the proteasome were calculated at increasing concentrations of the inhibitor. The samples were pre-incubated for 15 min in ice. The assay was started through the addition of 50 μM of one of the following fluorogenic peptide substrates:
The release of MCA was determined at 460 nm emission (excitation 390 nm). The IC50-values as calculated for MG132 served as controls.

The next data set deals with T2, 20S proteasome.
T2 construct: Proteasomes were isolated from red blood cells; from tissue; host or cells: red blood cells
Kind of data set: Inhibition of the different proteasomal activities, summary statements. The settings on record: for which proteasomal activities are inhibited (site selectivity): isolated proteasomes, specific substrates. It counts as biochemical. The protocol: The specific inhibition of a single catalytic site is of specific interest for the development of drugs. Thus, the inhibition of the different proteasomal activities of the proteasome was analysed (see also example 6). The different cleavage-preferences of the proteasome were determined by the specific substrate for the hydrophobic (chymotrypsin-like), the trypsine-like and the caspase-like activities of isolated proteasomes.
as §1, §2

The test system of a further data set is HeLa-cells. The data set can be described thus: Viability of HeLa-cells, crystal violet-staining. It counts as cell-based. The settings on record: for rate of survival of HeLa-cells: 10 μM, 20 hours. The procedure: A, The viability of HeLa-Cells that were incubated with the compounds 7-28 and MG132 (1 μM), was determined using crystal-violet-staining after 20 h.
B, The viability of HeLa-Cells is dependent from the concentration of the inhibitor. HeLa-cells were cultivated for 20 hours in the presence of increasing concentrations (10 to 10000 nM) of the compounds (7, 13, 15, 18, 20-22, 24-28) and MG 132. The survival of the cells was determined using crystal-violet-staining.
The viability of Hela-Cells in the presence of different compounds was tested in […]. The viability of HeLa-cells was tested through crystal violet-staining following the incubation with the inhibitors. The cells were washed once with PBS, fixed with 1% glutardialdehyde for 30 min, and washed again. Finally, the fixed cells were stained with 0.1% crystal violet in PBS for 30 min, and subsequently carefully washed with water, in order to remove unbound dye. The residual dye was eluted with 0.1% Triton X-100 in PBS, and determined at 550 nm.

Data set [2] concerns Human melanoma cells (MeWo). The data set can be described thus: Viability of human melanoma cells (MeWo), crystal violet-staining. As to conditions: 72 h. It counts as cell-based. The procedure:
A, Human melanoma cells (MeWo) were treated with increasing concentrations of the compounds 15 or 3 (MG132) for 72 hours. The viability of the cells after the treatment with compound 15 (-♦-) and with MG132 (-□-) was detected by a crystal-violet-staining. B and C, MeWo cells were co-cultivated with the compounds 15 and 3 (MG132) for 24 hours. The cells were subsequently fixed in 70% ethanol, and treated with RNAse A. The DNA was stained with propidium iodide (5 μg/ml), and analysed by means of FACS (FACS Calibur flow cytometer; Beckton Dickinson). The statistical significance was detected by the chi-square-test. The relative distribution of the cells that were present in the G1-(black), in the S-(white) or in the G2 phase (hatched) of the cellular cycle is shown for both compounds as examined (15 in B and MG132 in C).
Human melanoma cells (MeWo) were incubated for 72 h with different concentrations of the inhibitor 15 and 28, and the viability of the cells was determined by means of crystal violet-staining (FIG. 8).

Where a SMILES comes first, the peptide text is derived from it. The star is where a group is joined. Cbz = O=C(OCc1ccccc1)*; OtBu = CC(C)(C)O*

For the molecule `CC(C)CC(C=O)NC(=O)C(CC(=O)OC(C)(C)C)NC(=O)C(CC(C)C)NC(=O)OCc1ccccc1` (stereo not drawn) [Compound 15, Z-Leu-Asp(O^tBu)Leu-CHO] (Cbz-Leu-Asp(OtBu)-Leu-aldehyde; configuration not given here), the IC50 in data set [1] was 1790 nM; at 20S proteasome (proteasomal activity not given, read-out: IC50-values of the most potent inhibitors) it was less than 60 nM; in data set [2] (Homo sapiens, read-out: concentration at rate of survival of 50% of the cells), 15 nM. Besides, in the data set with 20S proteasome, the “which proteasomal activities are inhibited (site selectivity)” value is listed as “inhibited all of the proteasomal hydrolytic activities”. Besides, the toxicity entry in the data set on HeLa-cells is “low toxicity”. Further, the “rate of survival of HeLa-cells” value in the data set on HeLa-cells is on record as “markedly reduced”. Also, the “sensitivity of tumour cells” value in data set [2] was “increased sensitivity of tumour cells”.

On to `CC(C)C[C@H](NC(=O)OCc1ccccc1)C(=O)N[C@@H](CC(C)C)C(=O)N[C@@H](CC(C)C)C(=O)C(=O)Nc1ccccc1` [Compound 28], for which, in data set [1], the IC50 is more than 10000 nM. The “which proteasomal activities are inhibited (site selectivity)” value in the data set with 20S proteasome is recorded as “exclusive reduction of the chymotryptic activity”. Besides, in the data set with HeLa-cells, the “rate of survival of HeLa-cells” value is reported as “markedly reduced”. In data set [2], the “sensitivity of tumour cells” value is recorded as “increased sensitivity of tumour cells”.
